Experimental data reported in patent US20220304958A1, “SMALL MOLECULE INHIBITORS OF A PROTEIN COMPLEX” (THE REGENTS OF THE UNIVERSITY OF CALIFORNIA, priority 2019, published 2022).
Peptide text beside a SMILES is read from it.

target: T1, HEG1-KRIT1 interaction (Homo sapiens, UniProt O00522); assay: Flow cytometry assay for the HEG1-KRIT1 FERM domain interaction (competition binding on HEG1 matrix beads); conditions: Table 2; flow cytometry-screening assay; NI = no inhibition detected up to 500 μM
T1 construct: His6-EGFP-KRIT1 (WT) FERM domain (417-736) and KRIT1 (L717,721A) mutant were cloned into pETM-11; His6 (N); made in house; host or cells: E. coli BL21 Star (DE3)
Experimental: Bead Coupling. SPHERO Neutravidin Polystyrene Particles, […] (Spherotech) were washed twice with wash buffer (20 mM Tris, 150 mM NaCl. pH 7.4 containing 0.01% NP-40, and 1 mM EDTA). Prior to incubation with biotin-tagged HEG 1 cytoplasmic tail protein, an appropriate volume of bead slurry was passivated to inhibit non-specific binding by incubation for 30 minutes at room temperature in reaction buffer containing 0.1% BSA (20 mM Tris, 150 mM NaCl, pH 7.4 0.01% NP-40, 1 mM EDTA, 1 mM DTT, and 0.1% BSA). Passivated beads were collected by centrifugation, resuspended to 3,600 particles/μl in reaction buffer and biotinylated HEG1 tail was added to a final concentration of 150 nM and incubated overnight on a rotator at 4° C. The beads were washed three times by centrifugation with ice-cold reaction buffer to remove unbound HEG1 peptide. Beads were diluted such that a final concentration of 2000 beads/μL were available for addition to assay plates.
Flow cytometry assay. A final volume of 100 μl containing 140 nM EGFP-KRIT1 FERM domain, with 10% DMSO or 10% compounds in DMSO, was incubated for 15 minutes at room temperature on a rotator. 100 μl of beads were added to the mixture for a final volume of 200 μl at 1,000 particles/μl with 70 nM EGFP-KRIT1 and incubated for 15 minutes at room temperature on a rotator. The control beads were: without KRIT1 (minimum signal); with KRIT1 (maximum signal); and with KRIT1 plus 2 μM HEG1 7-mer (positive blocking control). The EGFP fluorescence was measured using a BD Accuri flow cytometer. For screening purposes, the final volume of the reaction was scaled down to 10 μl and samples were processed as previously described (27). For FIGS. 1D-1F, 2B, and 3E, a representative experiment is shown of at the least 3 independent repeats.
Assay plate assembly. Plate assays were performed in 384-well microtiter plates (Greiner Bio-one, #784101). Reaction buffer. HEG1-coupled beads, and EGFP-KRIT-FERM constructs were added using a MultiFlo™ Microplate Dispenser (BioTek Instruments, Inc.). Compounds were added to single-point assay plates pre-loaded with reaction buffer using a Biomek^NX liquid handler (BeckmanCoulter) equipped with a […] pintool (V & P Scientific, Inc.). Compound libraries were dispensed to a final concentration of 10 μM. An equal volume (10 nL) of DMSO was added to the vehicle control wells. Following the addition of library compounds, 5 μL of assay buffer was added and the plates were mixed before addition of 5 μL of the protein-coupled bead mixtures; Plates were protected from light and incubated on a rotator for 15 minutes at room temperature. Binding of EGFP-KRIT to HEG1 coupled beads was evaluated using an Accuri C6 flow cytometer.
Data Acquisition. Assay plates were sampled using the HyperCyt™ high throughput flow cytometry platform (Intellicyt; Albuquerque, N. Mex.). During sampling, the probe moves from well to well and samples 1-2 μL from each well pausing 0.4 sec in the air before sampling the next well. The resulting sample stream consisting of 384 separated samples is delivered to an Accuri C6 flow cytometer (BD Biosciences; San Jose, Calif.). Plate data are acquired as time-resolved files that are parsed by software-based well identification algorithms and merged with compound library files. Plate performance was validated using the Z-prime calculation (28).
Compounds that satisfied hit selection criteria in the primary screen were cherry-picked from compound storage plates and tested to confirm activity and determine potency. Dose response data points were fitted by Prism software (GraphPad Software Inc., San Diego, Calif.) using nonlinear least-squares regression in a sigmoidal dose-response model with variable slope, also known as the 4-parameter logistic equation.

T1 sequence (O00522 417-736): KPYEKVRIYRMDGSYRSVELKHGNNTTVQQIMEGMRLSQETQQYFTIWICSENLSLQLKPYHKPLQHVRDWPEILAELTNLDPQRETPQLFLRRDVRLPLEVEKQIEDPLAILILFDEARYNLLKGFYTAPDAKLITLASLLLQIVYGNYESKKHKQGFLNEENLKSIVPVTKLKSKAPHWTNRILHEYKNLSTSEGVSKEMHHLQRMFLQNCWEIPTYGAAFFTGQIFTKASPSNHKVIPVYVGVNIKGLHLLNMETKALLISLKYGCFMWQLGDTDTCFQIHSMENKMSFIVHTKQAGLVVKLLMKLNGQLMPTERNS

Q: With `COC(=O)c1ccccc1NC(=O)c1c(O)ccc2ccccc12` [BL-0589, methyl 2-(2-hydroxy-1-naphthamido)benzoate] as the molecule, how does the “IC50 (μM)” value read?
A: precipitation

Q: Which “IC50 (μM)” value does the source give for `Oc1ccc2ccccc2c1/C=N/c1ncn[nH]1` [BL-0550, (E)-1-(((1H-1,2,4-triazol-5-yl)imino)methy)naphthalen-2-ol] here?
A: precipitation

Q: `Oc1ccc2ccccc2c1/C=N/c1cccnc1` [BL-0551, (E)-1-((pyridin-3-ylimino)methyl)naphthalen-2-ol] was tested. Which “IC50 (μM)” value did it give?
A: precipitation

same assay, conditions: Table 2; flow cytometry-screening assay; NI = no inhibition detected up to 500 μM; read-out: IC50

Q: With `O=Cc1cc(-c2ccccc2)ccc1O` [BL-0628 (HKi4), 4-Hydroxy-[1,1′-biphenyl]-3-carbaldehyde] as the molecule, how does the IC50 read?
A: 21.8 µM

Q: `N#Cc1ccc2c(C=O)c(O)ccc2c1` [BL-0788, 5-Formyl-6-hydroxy-2-naphthonitrile] was tested. Which IC50 did it give?
A: 3.6 µM

Q: How did the IC50 turn out when `O=C(O)c1ccc(/N=C/c2c(O)ccc3ccccc23)cc1` [BL-0552, (E)-4-(((2-hydroxynaphthalen-1-yl)methylene)amino)benzoic acid] was run?
A: 1.8 µM

Q: With `OCC(CO)c1c(O)ccc2ccccc12` [BL-703, 2-(2-hydroxynaphthalen-1-yl)propane-1,3-diol] as the molecule, how does the IC50 read?
A: > 500 µM

Q: With `CC(O)c1ccc2c(C=O)c(O)ccc2c1` (centres unmarked) [BL-0745, 2-Hydroxy-6-(1-hydroxyethyl)-1-naphthaldehyde] as the molecule, how does the IC50 read?
A: 31.9 µM

Q: `Oc1ccc2ccccc2c1/C=N/c1nn[nH]n1` [BL-0549, (E)-1-(((1H-tetrazol-5-yl)imino)methyl)naphthalen-2-ol] was tested. Which IC50 did it give?
A: 3.2 µM

Q: For `Oc1ccc2ccccc2c1C(O)C(F)(F)F` (centres unmarked) [BL-706, 1-(2,2,2-Trifluoro-1-hydroxyethyl)naphthalen-2-ol], which IC50 is on record?
A: > 500 µM

Q: Which IC50 does the source give for `O=Cc1c(O)ccc2cc(N3CCCCC3)ccc12` [BL-0736, 2-Hydroxy-6-(piperidin-1-yl)-1-naphthaldehyde] here?
A: 28.8 µM

Q: Which IC50 does the source give for `O=Cc1c(O)ccc2cc(-c3cccs3)ccc12` [BL-0819, 2-Hydroxy-6-(thiophen-2-yl)-1-naphthaldehyde] here?
A: 1.2 µM

Q: With `CC(=O)c1ccc2c(C=O)c(O)ccc2c1` [BL-0700 (HKi9), 6-acetyl-2-hydroxy-1-naphthaldehyde] as the molecule, how does the IC50 read?
A: 58.6 µM

Q: `CC(NC(=O)c1ccccc1N)c1ccccc1` (centres unmarked) [Compound 4, 2-amino-N-(1-phenylethyl)benzamide] was tested. Which IC50 did it give?
A: > 500 µM

Q: With `O=Cc1c(O)ccc2cc(Cl)ccc12` [BL-702 (Hki10), 6-chloro-2-hydroxy-1-naphthaldehyde] as the molecule, how does the IC50 read?
A: 3.2 µM

Q: `CCOc1ccc2c(C=O)c(O)ccc2c1` [BL-0794, 6-Ethoxy-2-hydroxy-1-naphthaldehyde] was tested. Which IC50 did it give?
A: 4.6 µM

Q: Which IC50 does the source give for `OC1(c2cccc3ccccc23)COC1` [BL-0695, 3-(naphthalen-1-yl)oxetan-3-ol] here?
A: > 500 µM

Q: Which IC50 does the source give for `O=Cc1c(O)ccc2cc(N3CCC3=O)ccc12` [BL-0738, 2-Hydroxy-6-(2-oxoazetidin-1-yl)-1-naphthaldehyde] here?
A: 30.3 µM

Q: Which IC50 does the source give for `CSc1c(O)ccc2ccccc12` [BL-707, 1-(methylthio)naphthalen-2-ol] here?
A: > 500 µM

Q: With `Cc1ccc2c(C=O)c(O)ccc2c1` [BL-0666 (HKi8), 2-hydroxy-6-methyl-1-naphthaldehyde] as the molecule, how does the IC50 read?
A: 5.1 µM

Q: With `O=Cc1c(O)ccc2cccc(O)c12` [BL-0693, 2,8-dihydroxy-1-naphthaldehyde] as the molecule, how does the IC50 read?
A: 45 µM

Q: With `CCOC(=O)/C=C/c1ccc2c(C=O)c(O)ccc2c1` [BL-0744, Ethyl (E)-3-(5-formyl-6-hydroxynaphthalen-2-yl)acrylate] as the molecule, how does the IC50 read?
A: 79.3 µM

Q: How did the IC50 turn out when `O=C(O)c1cccc(/N=C/c2c(O)ccc3ccccc23)c1` [BL-0558, (E)-3-(((2-hydroxynaphthalen-1-yl)methylene)amino)benzoic acid] was run?
A: 3.2 µM

Q: For `COc1cccc2ccc(O)c(C=O)c12` [BL-0691, 2-hydroxy-8-methoxy-1-naphthaldehyde], which IC50 is on record?
A: 18 µM

Q: For `C=CCc1ccc2c(C=O)c(O)ccc2c1` [BL-0739, 6-Allyl-2-hydroxy-1-naphthaldehyde], which IC50 is on record?
A: 1.1 µM

Q: `CC#Cc1ccc2c(C=O)c(O)ccc2c1` [BL-0817, 2-Hydroxy-6-(prop-1-yn-1-yl)-1-naphthaldehyde] was tested. Which IC50 did it give?
A: 15 µM

Q: `CCCCc1ccc2c(C=O)c(O)ccc2c1` [BL-0743, 6-Butyl-2-hydroxy-1-naphthaldehyde] was tested. Which IC50 did it give?
A: 78.8 µM

Q: `O=C(O)c1ccccc1NCc1c(O)ccc2ccccc12` [BL-0588, 2-(((2-hydroxynaphthalen-1-yl)methyl)amino)benzoic acid] was tested. Which IC50 did it give?
A: > 500 µM

Q: Which IC50 does the source give for `O=C(O)c1ccccc1/N=C/c1c(O)ccc2ccccc12` [BL-0547 (Hki3), (E)-2-(((2-hydroxynaphthalen-1-yl)methylene)amino)benzoic acid] here?
A: 2.9 µM

Q: With `CS(=O)(=O)c1c(O)ccc2ccccc12` [BL-704, 1-(Methylsulfonyl)naphthalen-2-ol] as the molecule, how does the IC50 read?
A: > 500 µM

Q: For `NCc1c(O)ccc2ccccc12` [BL-0592, 1-(aminomethyl)naphthalen-2-ol], which IC50 is on record?
A: > 500 µM

Q: Which IC50 does the source give for `O=C(O)c1ccccc1NC(=O)c1c(O)ccc2ccccc12` [BL-0590, 2-(2-hydroxy-1-naphthamido)benzoic acid] here?
A: > 500 µM

Q: How did the IC50 turn out when `ON=Cc1c(O)ccc2ccccc12` [BL-0591, 2-hydroxy-l-naphthaldehyde oxime] was run?
A: > 500 µM

Q: With `Oc1ccc2c(/C=N/c3ccccc3)c(O)ccc2c1` [BL-0661 (HKi7), 1-((phenylimino)methyl)naphthalene-2,6-diol] as the molecule, how does the IC50 read?
A: 32 µM

Q: Which IC50 does the source give for `CC(O)c1c(O)ccc2ccccc12` (centres unmarked) [BL-0713, 1-(1-hydroxyethyl)naphthalen-2-ol] here?
A: > 500 µM

Q: Which IC50 does the source give for `O=Cc1c(O)ccc2cc(-c3ccccc3)ccc12` [BL-0818, 2-Hydraxy-6-phenyl-1-naphthaldehyde] here?
A: 3 µM

Q: `O=C(O)c1ccccc1CCc1c(O)ccc2ccccc12` [BL-0606, 2-(2-(2-hydroxynaphthalen-1-yl)ethyl)benzoic acid] was tested. Which IC50 did it give?
A: > 500 µM

Q: Which IC50 does the source give for `CC(N)c1ccccc1N` (centres unmarked) [Compound 5, 2-(1-aminoethyl)aniline] here?
A: > 500 µM

Q: How did the IC50 turn out when `CCc1ccc2c(C=O)c(O)ccc2c1` [BL-0740, 6-Ethyl-2-hydroxy-1-naphthaldehyde] was run?
A: 3.9 µM

Q: How did the IC50 turn out when `c1ccc2c(c1)ccc1oncc12` [BL-0593, naphtho[1,2-d]isoxazole] was run?
A: > 500 µM

Q: With `O=Cc1ccccc1O` [Compound 16, Salicylaldehyde] as the molecule, how does the IC50 read?
A: > 500 µM

Q: How did the IC50 turn out when `C#Cc1ccc2c(C=O)c(O)ccc2c1` [BL-0742, 6-Ethynyl-2-hydroxy-1-naphthaldehyde] was run?
A: 4 µM

Q: `C[S+]([O-])c1c(O)ccc2ccccc12` (centres unmarked) [BL-705, 1-(Methylsulfinyl)naphthalen-2-ol] was tested. Which IC50 did it give?
A: > 500 µM

Q: With `O=C(O)c1ccccc1/C=C/c1c(O)ccc2ccccc12` [BL-0605, (E)-2-(2-(2-hydroxynaphthalen-1-yl)vinyl)benzoic acid] as the molecule, how does the IC50 read?
A: > 500 µM

Q: With `O=C(O)c1ccccc1C#Cc1c(O)ccc2ccccc12` [BL-0604, 2-((2-hydroxynaphthalen-1-yl)ethynyl)benzoic acid] as the molecule, how does the IC50 read?
A: > 500 µM

Q: With `O=Cc1nccc2ccccc12` [BL-0607, Isoquinoline-1-carbaldehyde] as the molecule, how does the IC50 read?
A: > 500 µM

Q: With `CN(C)c1ccc2c(C=O)c(O)ccc2c1` [BL-0737, 6-(Dimethylamino)-2-hydroxy-1-naphthaldehyde] as the molecule, how does the IC50 read?
A: 2.6 µM

same assay, conditions: blocking of GFP-KRIT1 FERM domain binding to HEG1 matrix beads; read-out: IC50

Q: `N=C(N)NCCC[C@H](NC(=O)[C@H](CCCNC(=N)N)NC(=O)[C@H](CCCNC(=N)N)NC(=O)[C@@H](N)CO)C(=O)N[C@@H](CC(=O)O)C(=O)N[C@@H](Cc1ccc(O)cc1)C(=O)N[C@@H](Cc1ccccc1)C(=O)O` [HEG1 C-terminus 7-mer peptide, reference compound] (H-SRRRDYF-OH; N-terminus and C-terminus assumed) was tested. Which IC50 did it give?
A: 0.41 µM

same assay, conditions: inhibition of the HEG1-KRIT1 interaction, flow cytometry assay

Q: How did the IC50 turn out when `O=Cc1ccccc1O` [Compound 16, Salicylaldehyde] was run?
A: did not exhibit detectable activity

Q: Which IC50 does the source give for `O=Cc1nccc2ccccc12` [BL-0607, Isoquinoline-1-carbaldehyde] here?
A: no inhibition
